# Key:
# [1] = biological target: T1, Vitamin D3 receptor (Bos taurus) (UniProt Q28037); assay: Affinity for bovine thymus vitamin D receptor
# T1 sequence (whole entry): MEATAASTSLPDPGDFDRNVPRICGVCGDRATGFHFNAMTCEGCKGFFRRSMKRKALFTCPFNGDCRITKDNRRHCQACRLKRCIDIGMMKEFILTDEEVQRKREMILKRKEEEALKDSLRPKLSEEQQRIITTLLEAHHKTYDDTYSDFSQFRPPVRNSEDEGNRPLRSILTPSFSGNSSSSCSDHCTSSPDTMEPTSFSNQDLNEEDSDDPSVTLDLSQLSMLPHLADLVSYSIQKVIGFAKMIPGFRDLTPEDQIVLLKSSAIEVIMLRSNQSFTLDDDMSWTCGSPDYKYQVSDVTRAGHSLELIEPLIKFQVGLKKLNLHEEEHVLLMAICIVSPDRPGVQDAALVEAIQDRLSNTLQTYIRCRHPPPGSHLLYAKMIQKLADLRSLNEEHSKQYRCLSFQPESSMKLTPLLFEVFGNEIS
# HL-60 = assay: Compound was evaluated for its relative cell differentiation of human promyelocytic leukemia cells (HL-60); format: functional
Activity [1],SMILES,Activity (HL-60)
53,C=C1/C(=C\C=C2/CCC[C@@]3(C)C2CC[C@@H]3C(CCCC(C)(C)O)CCCC(C)(C)O)C[C@@H](O)[C@H](C)[C@@H]1O (stereo not given in full),3840
24,C=C1/C(=C\C=C2/CCC[C@@]3(C)C2CC[C@@H]3C(CCCC(C)(C)O)CCCC(C)(C)O)C[C@@H](O)C[C@@H]1O (stereo not given in full),1060
57,C=C1/C(=C\C=C2/CCC[C@@]3(C)C2CC[C@@H]3C(CCCC(C)(C)O)CCCC(C)(C)O)C[C@@H](O)[C@H](CCCO)[C@@H]1O (stereo not given in full),1280

# More lines, now with the values behind:
SMILES,Activity [1],Activity (HL-60)
C=C1/C(=C\C=C2/CCC[C@]3(C)[C@@H]([C@H](C)CCCC(C)(C)O)CC[C@@H]23)C[C@@H](O)C[C@@H]1O [CALCITRIOL],100,100
C=C1/C(=C\C=C2/CCC[C@@]3(C)C2CC[C@@H]3C(CCCC(C)(C)O)CCCC(C)(C)O)C[C@@H](O)[C@H](OCCCO)[C@@H]1O (stereo not given in full),36,1920
